Where two headings read alike, the source gives them in different places.
Experiments:
HepG2 = assay: MTT anti-proliferative assay, HepG2; format: cell-based, Human; conditions: read-out: IC50 ± SD, HepG2
Description: (§1) The cells proliferations were determined by MTT [3-(4,5-dimethylthiazol-2-yl)-2,5-diphenyltetrazolium bromide] assays, wherein MTT color intensity was directly associated with the number of healthy, living cells. The three cancer cell lines, i.e., MCF-7, Michigan Cancer Foundation-7; HepG2, Human hepatocellular carcinoma; and HCT-116, Human colorectal carcinoma, were obtained from the Laboratory of Parasitology, Faculty of Medicine, Universitas Gadjah Mada Indonesia. The cells were cultured in DMEM (Dulbecco’s Modified Eagle’s Medium) (Gibco, Waltham, MA, USA) with 10% Fetal Bovine Serum (FBS, Gibco), 2% Sodium bicarbonate (NaHCO3, Gibco), and HEPES (4-2(2-hydroxyethyl)-1-piperazine ethane sulfonic acid) (Invitrogen). The cell lines were maintained at 37 °C in a humidified incubator containing 5% CO2. The IC50 values as µM were determined after 48-h of compounds incubations with the cells. The assays were determined as mean ± SD: Standard Deviation (n = 3) (p < 0.005, compared with the standard value).

HCT-116 = assay: MTT anti-proliferative assay, HCT-116; format: cell-based, Human; conditions: read-out: IC50 ± SD, HCT-116
Description: as §1

MCF-7 = assay: MTT anti-proliferative assay, MCF-7; format: cell-based; conditions: read-out: IC50 ± SD, MCF-7
Description: as §1

Aurora-B = target: T1, Aurora-B (Homo sapiens, UniProt Q96GD4); assay: Radiometric protein kinase assay, Aurora-B; format: biochemical
T1 construct: purchased Sigma-Aldrich
Description: (§2) The radiometric protein kinase assays (RPKA) were used to investigate the kinase inhibitory effects of the isolated compounds. The method was dependent on the incorporation of radioactive ^33P isotope with ATP, and the percentage of phosphorylation was determined using the microplate-scintillation counter (Microbeta, Wallac, Finland) method. The half-maximal inhibitory concentration (IC50) values of compounds were measured by a microplate-scintillation counter. The control mixture (without peptide substrate) measures endogenous phosphorylation of proteins in the Protein Kinase Sample by-^33P-ATP. The purified protein kinases were used as positive controls for the assay (Sigma-Aldrich, St. Louis, MO, USA).

Aurora-A = target: T2, Aurora-A (Homo sapiens, UniProt O14965); assay: Radiometric protein kinase assay, Aurora-A; format: biochemical
T2 construct: purchased Sigma-Aldrich
T2 sequence (O14965 1-403): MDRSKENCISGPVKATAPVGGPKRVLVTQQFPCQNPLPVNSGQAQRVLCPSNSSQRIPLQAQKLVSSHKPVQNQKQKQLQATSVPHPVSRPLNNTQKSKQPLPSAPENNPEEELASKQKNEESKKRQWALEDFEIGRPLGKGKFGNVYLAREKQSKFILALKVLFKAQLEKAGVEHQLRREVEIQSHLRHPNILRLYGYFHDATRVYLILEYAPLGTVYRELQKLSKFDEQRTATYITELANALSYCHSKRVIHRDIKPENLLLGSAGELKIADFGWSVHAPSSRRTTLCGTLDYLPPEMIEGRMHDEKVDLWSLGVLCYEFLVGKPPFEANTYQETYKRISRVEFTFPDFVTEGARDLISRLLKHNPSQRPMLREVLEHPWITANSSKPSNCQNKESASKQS
Description: as §2

[1] = MTT assay, 48-h incubation, n = 3
[2] = radiometric kinase assay, 33P-ATP, average of three independent experiments, read-out: IC50 Values, Aurora-B
[3] = radiometric kinase assay, 33P-ATP, average of three independent experiments, read-out: IC50 Values, Aurora-A
[4] = Homo sapiens, HepG2, MTT assay, 48-h incubation, n = 3
[5] = Homo sapiens, HCT-116, MTT assay, 48-h incubation, n = 3
[6] = Homo sapiens, MCF7, MTT assay, 48-h incubation, n = 3

T1 sequence (Q96GD4 whole entry): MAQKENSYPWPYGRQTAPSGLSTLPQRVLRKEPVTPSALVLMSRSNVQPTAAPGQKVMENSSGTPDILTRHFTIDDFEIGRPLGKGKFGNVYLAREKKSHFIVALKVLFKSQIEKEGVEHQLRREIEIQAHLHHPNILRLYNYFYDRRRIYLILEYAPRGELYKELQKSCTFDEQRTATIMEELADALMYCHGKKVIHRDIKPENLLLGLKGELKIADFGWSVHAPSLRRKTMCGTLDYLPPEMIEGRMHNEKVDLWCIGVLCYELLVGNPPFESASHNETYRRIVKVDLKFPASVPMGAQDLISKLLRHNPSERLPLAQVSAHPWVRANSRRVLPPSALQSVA

Q: How did the IC50 (HepG2; [1]) turn out when N.N.[Cl][Pt][Cl] [Cisplatin, reference compound] was run?
A: 12.9 ± 0.91 µM

Q: And the IC50 (HCT-116; [1])?
A: 14.4 ± 1.69 µM

Q: What about the IC50 (MCF-7; [1]) of the same compound?
A: 5.7 ± 0.76 µM

Q: Which results are given for COc1cc2c3c(c4cc(OC)c(OC)cc4c2cc1OC)CN1CCC[C@@H]1C3 [Compound 1, (-)-Tylophorine]?
A: IC50 (Aurora-B): 18.3 ± 1.32 µM; IC50 (Aurora-A): 21.4 ± 1.24 µM; IC50 (HepG2; Homo sapiens, HepG2, 48 h): 40.1 ± 2.94 µM; IC50 (HCT-116; Homo sapiens, HCT-116, 48 h): 142 ± 3.06 µM; IC50 (MCF-7; Homo sapiens, MCF7, 48 h): 126 µM

Q: Which IC50 (Aurora-B; [2]) does the source give for COc1cc2c3c(c4cc(OC)c(OC)cc4c2cc1OC)[C@@H](O)[C@H]1CCCN1C3 [Compound 2, 2,3,6,7-tetramethoxy-14β-hydroxy-phenanthroindolizidine] here?
A: 10.2 ± 1.21 µM

Q: What about the IC50 (Aurora-A; [3]) of the same compound?
A: 16.2 ± 1.43 µM

Q: What about the IC50 (HepG2; [4]) of the same compound?
A: 35.3 ± 2.97 µM

Q: What about the IC50 (HCT-116; [5]) of the same compound?
A: 75.5 µM

Q: What about the IC50 (MCF-7; [6]) of the same compound?
A: 50.7 ± 2.86 µM

Q: With COc1ccc2c3c(c4cc(OC)c(OC)cc4c2c1)CN1CCC[C@H]1[C@@H]3O [Compound 3, 3,6,7-trimethoxy-14α-hydroxy-phenanthroindolizidine] as the compound, how does the IC50 (Aurora-B) read?
A: 3.6 ± 0.93 µM

Q: What about the IC50 (Aurora-A) of the same compound?
A: 4.1 ± 1.08 µM

Q: What about the IC50 (HepG2; Homo sapiens, HepG2, 48 h) of the same compound?
A: 23.8 ± 3.02 µM

Q: And the IC50 (HCT-116; Homo sapiens, HCT-116, 48 h)?
A: 87 ± 3.08 µM

Q: And the IC50 (MCF-7; Homo sapiens, MCF7, 48 h)?
A: 32 ± 2.64 µM

Q: How did the IC50 (Aurora-B; [2]) turn out when COc1ccc2c3c(c4cc(OC)c(OC)cc4c2c1)C[N+]1([O-])CCC[C@H]1[C@H]3O (stereo partly drawn) [Compound 4, 3,6,7-trimethoxy-14α-hydroxy-phenanthroindolizidine-N-Oxide] was run?
A: > 100 µM

Q: What about the IC50 (Aurora-A; [3]) of the same compound?
A: > 100 µM

Q: And the IC50 (HepG2; [4])?
A: 197 µM

Q: And the IC50 (HCT-116; [5])?
A: > 200 µM

Q: What about the IC50 (MCF-7; [6]) of the same compound?
A: > 200 µM

Q: With COc1ccc2c3c(c4cc(OC)c(O)cc4c2c1)CN1CCC[C@H]1[C@H]3O [Compound 5, 14α-hydroxy-6-demethyl Tylophorinine] as the compound, how does the IC50 (Aurora-B; [2]) read?
A: 1.3 ± 0.58 µM

Q: And the IC50 (Aurora-A; [3])?
A: 0.6 ± 0.72 µM

Q: What about the IC50 (HepG2; [4]) of the same compound?
A: 4.77 ± 2.11 µM

Q: And the IC50 (HCT-116; [5])?
A: 20.1 ± 1.94 µM

Q: And the IC50 (MCF-7; [6])?
A: 6.45 ± 2.06 µM

Q: COc1ccc2c3c(c4cc(OC)c(O)cc4c2c1)C[N+]1([O-])CCCC1C3O (stereo not drawn) [Compound 6, 14α-hydroxy-6-demethyltylophorinine N-Oxide] was tested. Which IC50 (Aurora-B; [2]) did it give?
A: 6.5 ± 0.76 µM

Q: And the IC50 (Aurora-A; [3])?
A: 2.6 ± 0.86 µM

Q: And the IC50 (HepG2; [4])?
A: 15.3 ± 2.04 µM

Q: What about the IC50 (HCT-116; [5]) of the same compound?
A: 65.6 ± 2.24 µM

Q: And the IC50 (MCF-7; [6])?
A: 12.2 ± 1.81 µM

Q: What does the source list for COc1ccc(C2=C(c3ccc(OC)c(OC)c3)CN3CCCC3C2)cc1OC (centres unmarked) [Compound 7, 6,7-Bis (3,4-dimethoxyphenyl)-1,2,3,5,8,8a-hexahydroindolizine]?
A: IC50 (Aurora-B): > 100 µM; IC50 (Aurora-A): > 100 µM; IC50 (HepG2; Homo sapiens, HepG2, 48 h): > 200 µM; IC50 (HCT-116; Homo sapiens, HCT-116, 48 h): > 200 µM; IC50 (MCF-7; Homo sapiens, MCF7, 48 h): > 200 µM

Q: How did the IC50 (HepG2; [4]) turn out when O=C(/C=C/c1ccc(O)c(O)c1)O[C@@H]1C[C@](O)(C(=O)O)C[C@@H](O)[C@H]1O [Compound 8, chlorogenic acid] was run?
A: 170 µM

Q: What about the IC50 (HCT-116; [5]) of the same compound?
A: > 200 µM

Q: What about the IC50 (MCF-7; [6]) of the same compound?
A: 134 µM

Q: For COC(=O)[C@]1(O)C[C@@H](O)[C@@H](O)[C@H](OC(=O)/C=C/c2ccc(O)c(O)c2)C1 [Compound 9, chlorogenic acid methyl ester], which IC50 (HepG2; [4]) is on record?
A: > 200 µM

Q: What about the IC50 (HCT-116; [5]) of the same compound?
A: > 200 µM

Q: What about the IC50 (MCF-7; [6]) of the same compound?
A: > 200 µM

Reference: publication PMC9144581, “In Vitro Anti-Proliferative, and Kinase Inhibitory Activity of Phenanthroindolizidine Alkaloids Isolated from Tylophora indica” (Plants, 2022)
